Results published in the NIST ThermoML archive (doi:10.1016/j.fluid.2014.11.020).
± gives the expanded uncertainty stated by the source.

Assay: activity coefficient (dimensionless); of the first substance listed, at infinite dilution; xn = mol fraction of the nth substance listed
Details: Liquid, Chromatography, x1 = 0

Row | Structure (SMILES) | activity coefficient (323.15 K) | activity coefficient (333.15 K) | activity coefficient (343.15 K)
1 | CCCCO [butan-1-ol] + CCCCCCCCn1cc[n+](COCCCOC[n+]2ccn(CCCCCCCC)c2C)c1C.O=S(=O)([N-]S(=O)(=O)C(F)(F)F)C(F)(F)F.O=S(=O)([N-]S(=O)(=O)C(F)(F)F)C(F)(F)F | 0.84 ± 0.05 | 0.74 ± 0.05 | 0.69 ± 0.05
2 | CCCCO [butan-1-ol] + CCCOC[n+]1ccc(N(C)C)cc1.O=S(=O)([N-]S(=O)(=O)C(F)(F)F)C(F)(F)F | 2.25 ± 0.15 | 2.04 ± 0.14 | 1.85 ± 0.12
3 | CCCCO [butan-1-ol] + CCCOC[n+]1ccn(C)c1.F[B-](F)(F)F | 4.61 ± 0.31 | 4.17 ± 0.28 | 3.76 ± 0.26
4 | CCCCO [butan-1-ol] + CCCOC[n+]1ccn(C)c1.N#C[N-]C#N | 1.37 ± 0.09 | 1.32 ± 0.09 | 1.27 ± 0.08
5 | CCCCO [butan-1-ol] + CCCOC[n+]1ccn(C)c1.O=S(=O)([N-]S(=O)(=O)C(F)(F)F)C(F)(F)F | 2.37 ± 0.16 | 2.09 ± 0.14 | 1.89 ± 0.13
6 | CCCCO [butan-1-ol] + CCCOC[n+]1ccn(Cc2ccccc2)c1.F[B-](F)(F)F | 3 ± 0.2 | 2.59 ± 0.18 | 2.39 ± 0.16
7 | CCCCO [butan-1-ol] + CCCOC[n+]1ccn(Cc2ccccc2)c1.N#C[N-]C#N | 0.93 ± 0.06 | 0.88 ± 0.06 | 0.82 ± 0.05
8 | CCCCO [butan-1-ol] + CN(C)c1cc[n+](COCCCOC[n+]2ccc(N(C)C)cc2)cc1.O=S(=O)([N-]S(=O)(=O)C(F)(F)F)C(F)(F)F.O=S(=O)([N-]S(=O)(=O)C(F)(F)F)C(F)(F)F | 1.95 ± 0.13 | 1.64 ± 0.11 | 1.58 ± 0.1
9 | CCCCO [butan-1-ol] + Cn1cc[n+](COCCCOC[n+]2ccn(C)c2)c1.N#C[N-]C#N.N#C[N-]C#N | 2.21 ± 0.15 | 1.9 ± 0.13 | 1.79 ± 0.12
10 | CCCCO [butan-1-ol] + Cn1cc[n+](COCCCOC[n+]2ccn(C)c2)c1.O=S(=O)([N-]S(=O)(=O)C(F)(F)F)C(F)(F)F.O=S(=O)([N-]S(=O)(=O)C(F)(F)F)C(F)(F)F | 2.02 ± 0.14 | 1.85 ± 0.12 | 1.64 ± 0.11
11 | CCCCO [butan-1-ol] + N#C[N-]C#N.N#C[N-]C#N.c1ccc(Cn2cc[n+](COCCCOC[n+]3ccn(Cc4ccccc4)c3)c2)cc1 | 1.8 ± 0.12 | 1.68 ± 0.11 | 1.61 ± 0.11
12 | CCC(C)=O [butanone] + CCCCCCCCn1cc[n+](COCCC)c1C.N#C[N-]C#N | 0.7 ± 0.05 | 0.64 ± 0.04 | 0.55 ± 0.04
13 | CCC(C)=O [butanone] + CCCCCCCCn1cc[n+](COCCC)c1C.O=S(=O)([N-]S(=O)(=O)C(F)(F)F)C(F)(F)F | 0.36 ± 0.03 | 0.33 ± 0.03 | 0.3 ± 0.03
14 | CCC(C)=O [butanone] + CCCCCCCCn1cc[n+](COCCCOC[n+]2ccn(CCCCCCCC)c2C)c1C.N#C[N-]C#N.N#C[N-]C#N | 0.56 ± 0.04 | 0.5 ± 0.04 | 0.46 ± 0.04
15 | CCC(C)=O [butanone] + CCCCCCCCn1cc[n+](COCCCOC[n+]2ccn(CCCCCCCC)c2C)c1C.O=S(=O)([N-]S(=O)(=O)C(F)(F)F)C(F)(F)F.O=S(=O)([N-]S(=O)(=O)C(F)(F)F)C(F)(F)F | 0.21 ± 0.03 | 0.19 ± 0.03 | 0.18 ± 0.03
16 | CCC(C)=O [butanone] + CCCOC[n+]1ccc(N(C)C)cc1.O=S(=O)([N-]S(=O)(=O)C(F)(F)F)C(F)(F)F | 0.51 ± 0.04 | 0.49 ± 0.04 | 0.45 ± 0.04
17 | CCC(C)=O [butanone] + CCCOC[n+]1ccn(C)c1.F[B-](F)(F)F | 1.73 ± 0.12 | 1.6 ± 0.11 | 1.49 ± 0.1
18 | CCC(C)=O [butanone] + CCCOC[n+]1ccn(C)c1.N#C[N-]C#N | 1.27 ± 0.08 | 1.19 ± 0.08 | 1.12 ± 0.07
19 | CCC(C)=O [butanone] + CCCOC[n+]1ccn(C)c1.O=S(=O)([N-]S(=O)(=O)C(F)(F)F)C(F)(F)F | 0.47 ± 0.04 | 0.43 ± 0.04 | 0.4 ± 0.03
20 | CCC(C)=O [butanone] + CCCOC[n+]1ccn(Cc2ccccc2)c1.F[B-](F)(F)F | 1.06 ± 0.07 | 0.96 ± 0.06 | 0.89 ± 0.06
21 | CCC(C)=O [butanone] + CCCOC[n+]1ccn(Cc2ccccc2)c1.N#C[N-]C#N | 0.9 ± 0.06 | 0.87 ± 0.06 | 0.81 ± 0.05
22 | CCC(C)=O [butanone] + CCCOC[n+]1ccn(Cc2ccccc2)c1.O=S(=O)([N-]S(=O)(=O)C(F)(F)F)C(F)(F)F | 0.32 ± 0.03 | 0.26 ± 0.03 | 0.22 ± 0.03

Row | Structure (SMILES) | activity coefficient (323.15 K) | activity coefficient (333.15 K) | activity coefficient (343.15 K)
23 | CCC(C)=O [butanone] + CN(C)c1cc[n+](COCCCOC[n+]2ccc(N(C)C)cc2)cc1.O=S(=O)([N-]S(=O)(=O)C(F)(F)F)C(F)(F)F.O=S(=O)([N-]S(=O)(=O)C(F)(F)F)C(F)(F)F | 0.44 ± 0.04 | 0.41 ± 0.03 | 0.38 ± 0.03
24 | CCC(C)=O [butanone] + Cn1cc[n+](COCCCOC[n+]2ccn(C)c2)c1.N#C[N-]C#N.N#C[N-]C#N | 1.7 ± 0.11 | 1.56 ± 0.1 | 1.44 ± 0.09
25 | CCC(C)=O [butanone] + Cn1cc[n+](COCCCOC[n+]2ccn(C)c2)c1.O=S(=O)([N-]S(=O)(=O)C(F)(F)F)C(F)(F)F.O=S(=O)([N-]S(=O)(=O)C(F)(F)F)C(F)(F)F | 0.36 ± 0.03 | 0.34 ± 0.03 | 0.32 ± 0.03
26 | CCC(C)=O [butanone] + N#C[N-]C#N.N#C[N-]C#N.c1ccc(Cn2cc[n+](COCCCOC[n+]3ccn(Cc4ccccc4)c3)c2)cc1 | 1.78 ± 0.12 | 1.55 ± 0.1 | 1.41 ± 0.09
27 | C1CCCCCC1 [cycloheptane] + CCCCCCCCn1cc[n+](COCCC)c1C.N#C[N-]C#N | 15.7 ± 1.1 | – | –
28 | C1CCCCCC1 [cycloheptane] + CCCCCCCCn1cc[n+](COCCC)c1C.O=S(=O)([N-]S(=O)(=O)C(F)(F)F)C(F)(F)F | 6.43 ± 0.44 | 8.72 ± 0.6 | 11.5 ± 0.78
29 | C1CCCCCC1 [cycloheptane] + CCCCCCCCn1cc[n+](COCCCOC[n+]2ccn(CCCCCCCC)c2C)c1C.N#C[N-]C#N.N#C[N-]C#N | 10.1 ± 0.69 | 13.5 ± 0.92 | 18.3 ± 1.2
30 | C1CCCCCC1 [cycloheptane] + CCCCCCCCn1cc[n+](COCCCOC[n+]2ccn(CCCCCCCC)c2C)c1C.O=S(=O)([N-]S(=O)(=O)C(F)(F)F)C(F)(F)F.O=S(=O)([N-]S(=O)(=O)C(F)(F)F)C(F)(F)F | 5.84 ± 0.4 | 7.77 ± 0.53 | 10.2 ± 0.7
31 | C1CCCCCC1 [cycloheptane] + CCCOC[n+]1ccc(N(C)C)cc1.O=S(=O)([N-]S(=O)(=O)C(F)(F)F)C(F)(F)F | 18.6 ± 1.3 | 24.6 ± 1.7 | 31.7 ± 2.2
32 | C1CCCCCC1 [cycloheptane] + CCCOC[n+]1ccn(C)c1.F[B-](F)(F)F | 153 ± 11 | 240 ± 16 | 245 ± 17
33 | C1CCCCCC1 [cycloheptane] + CCCOC[n+]1ccn(C)c1.N#C[N-]C#N | 79.2 ± 5.4 | 105 ± 7.2 | 133 ± 9.1
34 | C1CCCCCC1 [cycloheptane] + CCCOC[n+]1ccn(C)c1.O=S(=O)([N-]S(=O)(=O)C(F)(F)F)C(F)(F)F | 27.2 ± 1.9 | 35.8 ± 2.5 | 46.1 ± 3.2
35 | C1CCCCCC1 [cycloheptane] + CCCOC[n+]1ccn(Cc2ccccc2)c1.N#C[N-]C#N | 35.8 ± 2.5 | 47.2 ± 3.2 | 56.3 ± 3.9
36 | C1CCCCCC1 [cycloheptane] + CCCOC[n+]1ccn(Cc2ccccc2)c1.O=S(=O)([N-]S(=O)(=O)C(F)(F)F)C(F)(F)F | 13.4 ± 0.91 | 15.8 ± 1.1 | 20.5 ± 1.4
37 | C1CCCCCC1 [cycloheptane] + CN(C)c1cc[n+](COCCCOC[n+]2ccc(N(C)C)cc2)cc1.O=S(=O)([N-]S(=O)(=O)C(F)(F)F)C(F)(F)F.O=S(=O)([N-]S(=O)(=O)C(F)(F)F)C(F)(F)F | 27 ± 1.9 | 34.9 ± 2.4 | 42.8 ± 2.9
38 | C1CCCCCC1 [cycloheptane] + Cn1cc[n+](COCCCOC[n+]2ccn(C)c2)c1.O=S(=O)([N-]S(=O)(=O)C(F)(F)F)C(F)(F)F.O=S(=O)([N-]S(=O)(=O)C(F)(F)F)C(F)(F)F | 41.5 ± 2.8 | 51.9 ± 3.5 | 63.5 ± 4.3
39 | C1CCCCCC1 [cycloheptane] + N#C[N-]C#N.N#C[N-]C#N.c1ccc(Cn2cc[n+](COCCCOC[n+]3ccn(Cc4ccccc4)c3)c2)cc1 | 117 ± 8 | 139 ± 9.6 | 171 ± 12
40 | C1CCCCC1 [cyclohexane] + CCCCCCCCn1cc[n+](COCCC)c1C.N#C[N-]C#N | 4.06 ± 0.28 | 3.85 ± 0.26 | 3.82 ± 0.26
41 | C1CCCCC1 [cyclohexane] + CCCCCCCCn1cc[n+](COCCCOC[n+]2ccn(CCCCCCCC)c2C)c1C.N#C[N-]C#N.N#C[N-]C#N | 4.29 ± 0.29 | 3.86 ± 0.26 | 3.71 ± 0.25
42 | C1CCCCC1 [cyclohexane] + CCCCCCCCn1cc[n+](COCCCOC[n+]2ccn(CCCCCCCC)c2C)c1C.O=S(=O)([N-]S(=O)(=O)C(F)(F)F)C(F)(F)F.O=S(=O)([N-]S(=O)(=O)C(F)(F)F)C(F)(F)F | 2.41 ± 0.16 | 2.22 ± 0.15 | 2.11 ± 0.14
43 | C1CCCCC1 [cyclohexane] + CCCOC[n+]1ccc(N(C)C)cc1.O=S(=O)([N-]S(=O)(=O)C(F)(F)F)C(F)(F)F | 7.06 ± 0.48 | 6.83 ± 0.47 | 6.37 ± 0.43
44 | C1CCCCC1 [cyclohexane] + CCCOC[n+]1ccn(C)c1.F[B-](F)(F)F | 46.7 ± 3.2 | 40.6 ± 2.8 | 36.4 ± 2.5
